Data on 19 molecules can be found in PubChem BioAssay AID256 (DTP/NCI, 2004).

This assay deals with CD2F1 mice, L1210 leukemia ip, survival T/C. Description: NCI In Vivo Anticancer Drug Screen. Data for tumor model L1210 Leukemia (intraperitoneal) in CD2F1 (CDF1) mice. The note with it: higher = longer survival. Summed up:
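Ratio T/C, where T is the treated-group value and C the vehicle-dosed control value, from mice implanted with a transplantable tumor.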

Where [1] appears, read: endpoint: mean survival time, dose: 6.25 mg/kg/injection, schedule: Q04DX003 (ip), vehicle: saline.
[2] abbreviates: endpoint: mean survival time, dose: 100.0 mg/kg/injection, schedule: Q04DX003 (ip), vehicle: saline.
[3] abbreviates: endpoint: mean survival time, dose: 200.0 mg/kg/injection, schedule: Q04DX003 (ip), vehicle: saline.
Setting [4] is: endpoint: mean survival time, dose: 100.0 mg/kg/injection, schedule: Q04DX002 (ip), vehicle: saline with Tween-80.
[5] abbreviates: endpoint: mean survival time, dose: 200.0 mg/kg/injection, schedule: Q04DX002 (ip), vehicle: saline with Tween-80.
Where [6] appears, read: endpoint: mean survival time, dose: 400.0 mg/kg/injection, schedule: Q04DX002 (ip), vehicle: saline with Tween-80.
Setting [7] is: endpoint: mean survival time, dose: 100.0 mg/kg/injection, schedule: Q04DX003 (ip), vehicle: saline with Tween-80.
The mark [8] stands for this setting: endpoint: mean survival time, dose: 200.0 mg/kg/injection, schedule: Q04DX003 (ip), vehicle: saline with Tween-80.
Setting [9] is: endpoint: mean survival time, dose: 400.0 mg/kg/injection, schedule: Q04DX003 (ip), vehicle: saline with Tween-80.
[10] abbreviates: endpoint: mean survival time, dose: 200.0 mg/kg/injection, schedule: Q01DX009 (ip), vehicle: saline with Tween-80.
The mark [11] stands for this setting: endpoint: mean survival time, dose: 100.0 mg/kg/injection, schedule: Q01DX009 (ip), vehicle: saline with Tween-80.
Where [12] appears, read: endpoint: mean survival time, dose: 50.0 mg/kg/injection, schedule: Q04DX002 (ip), vehicle: saline with Tween-80.

Values joined by “and” are separate entries in the source; they are usually repeats but may differ in a detail not shown here. Identical values can stand only once. Inconclusive results and toxic doses are left out.

Take `Nc1nc(=O)n(C2OC(CO)C(O)C2O)c(=O)[nH]1` (stereo not drawn): the T/C reads like this: (endpoint: mean survival time, dose: 3.12 mg/kg/injection, schedule: Q04DX003 (ip), vehicle: saline) 108 % of control; under setting [1], 97 % of control; (endpoint: mean survival time, dose: 12.5 mg/kg/injection, schedule: Q04DX003 (ip), vehicle: saline) 103 % of control; (endpoint: mean survival time, dose: 25.0 mg/kg/injection, schedule: Q04DX003 (ip), vehicle: saline) 95 % of control; (endpoint: mean survival time, dose: 50.0 mg/kg/injection, schedule: Q04DX003 (ip), vehicle: saline) 92 % of control; under setting [2], 100 % of control. Further, the T/C under setting [3] was 95 % of control.

Take `C/C(=N\Nc1ccccc1)C1=C(O)C(Cc2ccccc2)NC1=O` (stereo not drawn): the T/C is 100 % of control under setting [4], 100 % of control under setting [5] and 103 % of control under setting [6].

As for `O=C(Nc1ccccc1C(F)(F)F)Nc1cccc2ccccc12`, the T/C is 95 % of control under setting [7], 104 % of control under setting [8] and 95 % of control under setting [9].

In the case of `CSc1ccc(O)c(C)c1`, the T/C is 104 % of control under setting [7], 97 % of control under setting [10], 102 % of control under setting [8] and 104 % of control under setting [9].

In the case of `[Cl][Pt+2][Cl].[NH-]C1CCC1.[NH2-]`, the T/C was 98 % of control (endpoint: mean survival time, dose: 0.39 mg/kg/injection, schedule: Q04DX003 (ip), vehicle: saline); 100 % of control (endpoint: mean survival time, dose: 0.78 mg/kg/injection, schedule: Q04DX003 (ip), vehicle: saline); 120 % of control (endpoint: mean survival time, dose: 1.56 mg/kg/injection, schedule: Q04DX003 (ip), vehicle: saline); 110 % of control (endpoint: mean survival time, dose: 3.12 mg/kg/injection, schedule: Q04DX003 (ip), vehicle: distilled water + Tween-80); 200 % of control (endpoint: mean survival time, dose: 3.12 mg/kg/injection, schedule: Q04DX003 (ip), vehicle: water); 86 % of control (endpoint: mean survival time, dose: 6.25 mg/kg/injection, schedule: Q04DX003 (ip), vehicle: distilled water + Tween-80). For the same molecule, the T/C is 168 % of control under setting [1]; 111 % of control (endpoint: mean survival time, dose: 6.25 mg/kg/injection, schedule: Q04DX003 (ip), vehicle: water); 122 % of control (endpoint: median survival time, dose: 0.38 mg/kg/injection, schedule: Q01DX009 (ip), vehicle: saline); 156 % of control and 172 % of control (endpoint: median survival time, dose: 1.5 mg/kg/injection, schedule: Q01DX009 (ip), vehicle: saline); 184 % of control and 213 % of control (endpoint: median survival time, dose: 3.0 mg/kg/injection, schedule: Q01DX009 (ip), vehicle: saline); 314 % of control (endpoint: median survival time, dose: 3.0 mg/kg/injection, schedule: Q01DX009 (ip), vehicle: suspension in saline). In addition, the T/C by setting is: (endpoint: median survival time, dose: 6.0 mg/kg/injection, schedule: Q01DX009 (ip), vehicle: saline) 116 % of control and 123 % of control; (endpoint: median survival time, dose: 12.0 mg/kg/injection, schedule: Q01DX009 (ip), vehicle: suspension in saline) 111 % of control.

As to `O=[N+]([O-])c1ccccc1-c1cc(-c2ccccc2)nn1-c1ccccc1`, the T/C under setting [11] was 102 % of control; the T/C under setting [7] is 98 % of control; the T/C under setting [10] is 103 % of control; the T/C under setting [8] is 98 % of control; the T/C (endpoint: mean survival time, dose: 400.0 mg/kg/injection, schedule: Q01DX009 (ip), vehicle: saline with Tween-80) is 97 % of control; the T/C under setting [9] is 95 % of control.

Consider `O=S(=O)(NC1CCCC2C=CC=CC21)c1ccccc1` (stereo not drawn), for which the T/C by setting is: (endpoint: mean survival time, dose: 100.0 mg/kg/injection, schedule: Q01DX001 (ip), vehicle: saline with Tween-80) 94 % of control; (endpoint: mean survival time, dose: 200.0 mg/kg/injection, schedule: Q01DX001 (ip), vehicle: saline with Tween-80) 102 % of control; (endpoint: mean survival time, dose: 400.0 mg/kg/injection, schedule: Q01DX001 (ip), vehicle: saline with Tween-80) 96 % of control.

Consider `O=C(Nc1ccc(Cl)c(Cl)c1)Nc1ccc(Cl)c(Cl)c1` (tested in a mixture with another compound), for which the T/C is 97 % of control under setting [4], 90 % of control under setting [5] and 97 % of control under setting [6].

With `O=C(c1ccccn1)c1ccccn1`, the T/C reads like this: under setting [2], 96 % of control; under setting [3], 104 % of control; (endpoint: mean survival time, dose: 400.0 mg/kg/injection, schedule: Q04DX003 (ip), vehicle: saline) 102 % of control.

Take `CCOC(=O)Nc1cc(Cl)ccc1O`: the T/C under setting [11] was 103 % of control; the T/C under setting [7] is 92 % of control; the T/C under setting [10] is 104 % of control; the T/C under setting [8] is 103 % of control; the T/C under setting [9] was 88 % of control.

With `CCOC1=Cc2c(oc3c(C(C)(C)C)cc(OCC)cc23)OC(C(C)(C)C)=C1`, the T/C is, setting by setting: (endpoint: median survival time, dose: 1.56 mg/kg/injection, schedule: Q01DX009 (ip), vehicle: saline with Tween-80) 95 % of control and 102 % of control; (endpoint: median survival time, dose: 3.12 mg/kg/injection, schedule: Q01DX009 (ip), vehicle: saline with Tween-80) 95 % of control and 102 % of control; (endpoint: median survival time, dose: 6.25 mg/kg/injection, schedule: Q01DX009 (ip), vehicle: saline with Tween-80) 101 % of control and 102 % of control; (endpoint: median survival time, dose: 12.5 mg/kg/injection, schedule: Q01DX009 (ip), vehicle: saline with Tween-80) 98 % of control and 103 % of control; (endpoint: median survival time, dose: 25.0 mg/kg/injection, schedule: Q01DX009 (ip), vehicle: saline with Tween-80) 98 % of control and 102 % of control; (endpoint: median survival time, dose: 50.0 mg/kg/injection, schedule: Q01DX009 (ip), vehicle: saline with Tween-80) 114 % of control and 98 % of control.

For the molecule `[Br][Pt+2][Br].[NH-]C1CCCCC1[NH-]` (stereo not drawn), the T/C is 110 % of control (endpoint: mean survival time, dose: 0.78 mg/kg/injection, schedule: Q04DX003 (ip), vehicle: saline with Tween-80) and 113 % of control (endpoint: mean survival time, dose: 1.56 mg/kg/injection, schedule: Q04DX003 (ip), vehicle: saline with Tween-80).

Regarding `S=C(CCc1ccc2c(c1)CCCC2)N1CCOCC1`, the T/C by setting is: under setting [7], 98 % of control; under setting [8], 98 % of control; under setting [9], 97 % of control.

As for `CCCOCC(O)CNCCN` (stereo not drawn), the T/C (endpoint: mean survival time, dose: 12.5 mg/kg/injection, schedule: Q01DX009 (ip), vehicle: saline) was 96 % of control and 101 % of control; the T/C (endpoint: mean survival time, dose: 25.0 mg/kg/injection, schedule: Q01DX009 (ip), vehicle: saline) is 94 % of control and 98 % of control; the T/C (endpoint: mean survival time, dose: 50.0 mg/kg/injection, schedule: Q01DX009 (ip), vehicle: saline) was 93 % of control and 94 % of control; the T/C (endpoint: mean survival time, dose: 100.0 mg/kg/injection, schedule: Q01DX009 (ip), vehicle: saline) is 93 % of control and 96 % of control.

Consider `Cc1cc(C)c(CC2(C)SCCCS2)c(C)c1`, for which the T/C runs as follows: (endpoint: median survival time, dose: 50.0 mg/kg/injection, schedule: Q04DX002 (ip), vehicle: saline with Tween-80) 100 % of control; (endpoint: median survival time, dose: 100.0 mg/kg/injection, schedule: Q04DX002 (ip), vehicle: saline with Tween-80) 100 % of control; (endpoint: median survival time, dose: 200.0 mg/kg/injection, schedule: Q04DX002 (ip), vehicle: saline with Tween-80) 100 % of control; (endpoint: median survival time, dose: 400.0 mg/kg/injection, schedule: Q04DX002 (ip), vehicle: saline with Tween-80) 110 % of control.

For `COC1C(CO)OC(O)C(N)C1OC` (stereo not drawn), the T/C reads like this: (endpoint: mean survival time, dose: 100.0 mg/kg/injection, schedule: Q01DX001 (ip), vehicle: saline) 103 % of control; (endpoint: mean survival time, dose: 200.0 mg/kg/injection, schedule: Q01DX001 (ip), vehicle: saline) 103 % of control; (endpoint: mean survival time, dose: 400.0 mg/kg/injection, schedule: Q01DX001 (ip), vehicle: saline) 97 % of control.

With `COc1cccc(C(=O)CC(O)(C(F)(F)F)C(F)(F)F)c1`, the T/C was 101 % of control (endpoint: mean survival time, dose: 100.0 mg/kg/injection, schedule: Q01DX009 (ip), vehicle: other); 97 % of control (endpoint: mean survival time, dose: 200.0 mg/kg/injection, schedule: Q01DX009 (ip), vehicle: other); 101 % of control (endpoint: mean survival time, dose: 400.0 mg/kg/injection, schedule: Q01DX009 (ip), vehicle: other).

Turning to `Cc1ccc(S(=O)(=O)NNC(=O)c2ccccc2C(=O)O)cc1`, the T/C under setting [12] was 96 % of control, the T/C under setting [4] is 100 % of control, the T/C under setting [5] is 100 % of control and the T/C under setting [6] was 96 % of control.

Regarding `CCc1cccc(CC)c1NC(=S)NN`, the T/C by setting is: (endpoint: mean survival time, dose: 25.0 mg/kg/injection, schedule: Q04DX002 (ip), vehicle: saline with Tween-80) 104 % of control; under setting [12], 96 % of control; under setting [4], 96 % of control.
